Consider three compounds from BindingDB's records for doi:10.1021/acsmedchemlett.3c00041 (Insilico Medicine Hong Kong, 2023).

For orientation: IC50 means the concentration that gives 50% inhibition. A higher IC50 goes with lower potency.

In this assay the target is Tyrosine-protein kinase JAK1 (Homo sapiens, UniProt P23458). As to the kind of experiment: Inhibition of JAK1 (unknown origin).
Sequence of Tyrosine-protein kinase JAK1 (P23458 whole entry): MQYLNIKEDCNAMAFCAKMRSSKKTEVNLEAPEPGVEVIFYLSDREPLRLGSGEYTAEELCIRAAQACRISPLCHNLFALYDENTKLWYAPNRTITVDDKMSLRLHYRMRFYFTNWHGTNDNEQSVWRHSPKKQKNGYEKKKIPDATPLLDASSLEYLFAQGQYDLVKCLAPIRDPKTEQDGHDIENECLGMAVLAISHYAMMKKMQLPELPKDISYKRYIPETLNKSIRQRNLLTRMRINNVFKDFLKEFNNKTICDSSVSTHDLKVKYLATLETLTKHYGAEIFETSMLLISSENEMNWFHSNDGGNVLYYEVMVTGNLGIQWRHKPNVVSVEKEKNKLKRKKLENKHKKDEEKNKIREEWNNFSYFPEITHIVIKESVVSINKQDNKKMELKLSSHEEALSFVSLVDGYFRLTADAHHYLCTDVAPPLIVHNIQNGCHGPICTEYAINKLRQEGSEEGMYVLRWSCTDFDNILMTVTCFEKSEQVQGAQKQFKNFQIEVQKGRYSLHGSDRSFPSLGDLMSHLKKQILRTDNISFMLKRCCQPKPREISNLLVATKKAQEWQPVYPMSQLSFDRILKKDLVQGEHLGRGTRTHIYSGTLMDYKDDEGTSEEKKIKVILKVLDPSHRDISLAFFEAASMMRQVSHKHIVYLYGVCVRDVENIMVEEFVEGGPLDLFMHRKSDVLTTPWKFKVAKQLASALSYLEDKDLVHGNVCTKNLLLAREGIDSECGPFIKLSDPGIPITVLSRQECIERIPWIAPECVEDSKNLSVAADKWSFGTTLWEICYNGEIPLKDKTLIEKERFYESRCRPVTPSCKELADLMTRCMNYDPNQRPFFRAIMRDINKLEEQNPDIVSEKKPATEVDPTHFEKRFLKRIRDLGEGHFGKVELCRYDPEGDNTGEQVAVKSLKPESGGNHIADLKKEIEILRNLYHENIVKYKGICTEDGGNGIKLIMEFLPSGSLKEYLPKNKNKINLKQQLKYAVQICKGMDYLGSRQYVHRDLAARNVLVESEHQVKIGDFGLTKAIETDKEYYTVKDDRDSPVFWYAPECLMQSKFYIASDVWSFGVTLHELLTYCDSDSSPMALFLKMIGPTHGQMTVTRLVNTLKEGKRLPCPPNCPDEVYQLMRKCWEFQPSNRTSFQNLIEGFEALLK
`CCC1CN(C(=O)NCC(F)(F)F)CC1c1nc(N)nc2[nH]ccc12` (stereo not drawn) showed an IC50 of 9600 nM.

For `CCC1CN(C(=O)NCC(F)(F)F)CC1NCc1ccc(C)nc1-c1cnc2[nH]ccc2c1` (stereo not drawn), inhibition was half-maximal at 500 nM (IC50).

The compound `CCC1CN(C(=O)NCC(F)(F)F)CC1N(C)c1ncnc2[nH]ccc12` (stereo not drawn) returned an IC50 of 930 nM.
